Experimental data published in patent US11479805B2, “Combinatorial single molecule analysis of chromatin” (The General Hospital Corporation, priority 2015, dated 2022).

Experiments:
[1] = tested on: H3K9ac, H3K27ac, H3K4me3 and H3K27me3 on nucleosomes from ESCs; assay: Single-molecule decoding of nucleosomes from ESCs treated with HDAC inhibitor or p300 inhibitor; assay type: cell-based, Mouse; conditions: for change in H3K4me3 or H3K27me3 on nucleosomes: over the course of treatment (sodium butyrate 6 hours, C646 24 hours); for change in acetylation marks (H3K9ac, H3K27ac) on nucleosomes: sodium butyrate 1 mM 6 hours, C646 35 μM 24 hours, vs DMSO; for change in acetylation marks (H3K9ac, H3K27ac) on nucleosomes / preference of acetylation change for H3K4me3-marked nucleosomes (combination H3K27ac and H3K4me3): FIG. 3D; for preference of acetylation change for H3K4me3-marked nucleosomes (combination H3K27ac and H3K4me3): sodium butyrate 6 hours, C646 24 hours
Procedure: Applicants treated ESCs with a pan-HDAC inhibitor (sodium butyrate; 6 hours) or with a p300 HAT inhibitor (C646; 24 hours) and probed extracted nucleosomes for H3K9ac, H3K27ac, H3K4me3 and H3K27me3.
(§1) For HDAC inhibition, 6 million ES cells were plated on a 150 cm plate. 0.5M stock solution of Sodium butyrate (Sigma, 303410) was prepared fresh for each experiment, and diluted in cell media to a final concentration of 1 mM. Following 6 hours of treatment (unless otherwise noted in text), cells were collected and washed with PBS. For p300 inhibition, 4 million ES cells were plated on a 150 cm plate. 25 mM stock solution of C646 (Sigma, SML0002) was prepared and diluted in cell media to a final concentration of 35 μM. Cells were treated for 24 hours, then collected and washed with PBS. For EZH2 inhibition, 2.5 million Karpas422 B-cell non-Hodgkin's lymphoma cells were suspended in 10 ml media. A 10 mM stock solution of the EZH2 inhibitor GSK126 (32) was prepared and diluted 1:1000 in cell media. Cells were harvested 3 days following treatment.
10 million cells were collected and washed twice with PBS, then resuspended in 500 μl of Lysis buffer (50 mM Tris-HCl pH 7.5, 150 mM NaCl, 1% Triton® X-100, 0.1% sodium deoxycholate, 5 mM CaCl2), supplemented with protease inhibitors (ThermoFisher Scientific, 78425), phosphatase inhibitors (ThermoFisher Scientific, 78420) and HDAC inhibitors (Sodium butyrate, Sigma 303410). Micrococcal Nuclease (ThermoFisher Scientific, 88216) was added to lysis buffer at a concentration of 1 unit per milliliter. The suspension is incubated at 4° C. for 1 hour to lyse the cells, after which MNase is activated by incubating at 37° C. for 20 min and inactivated by addition of EGTA at a final concentration of 20 mM. Next, Applicants centrifuged the lysate for 10 min at max speed and supernatant was transferred to a new tube. 10% of the lysate was used to extract DNA (QIAGEN PCR purification kit, 28104) and run on 2% agarose gel to verify MNase digestion. 100 μl of the lysate were used for ligation of fluorescent, biotinylated adaptors: sample was diluted 1:1 in ligation reaction mixture containing End-It™ DNA End-Repair Kit (Epicentre, ER0720) and Fast-Link™ DNA Ligation Kit (Epicentre, LK0750H). Ligation buffer (100 μl) contained 20 μl ligase buffer, 5 μl of 10 mM dNTPs, 16 μl of 10 Mm ATP, 8 μl End-It, 8 μl fast-link ligase, 1 μl protease inhibitors, 1 μl phosphatase inhibitors, 2 μl of 50 mM sodium butyrate solution, 8 μl annealed adaptors (see sequences below) and H2O. Following at least two hours of ligation at room temperature, 1.5 ml of PBS (supplemented with inhibitors) was added to the sample. Next, the sample was concentrated on an Amicon ultra-4 centrifugal filter unit with ultracel-100 membrane (Millipore, UFC810024) for 15 minutes, and the Pac1 enzymatic reaction (NEB, R0547S) was performed in order to digest adaptor concatemers (adaptors were designed to form Pac1 restriction site in cases of self-ligation). Following Pac1 digestion, nucleosomes were separated on 10-30% glycerol gradients for 18 hours at 35,000 rpm. Fractions were collected and analyzed on 6% DNA retardation gels (ThermoFisher Scientific, EC6365BOX). Gels were imaged with Typhoon trio+imager (Amersham Biosciences), and fractions containing mono-nucleosomes were combined and concentrated on an Amicon Ultra-0.5 Centrifugal Filter Unit with Ultracel-100 membrane (Millipore, UFC510096). For preparation of biotinylated histones (FIG. 2E), histones were purified from ESCs using acid extraction and TCA precipitation as described previously (89). Histones biotinylation was carried out with EZ-Link Sulfo-NHS-Biotinylation Kit (Thermo Scientific, 21425) according to manufacturer's protocol.

[2] = tested on: acetylation marks in ESCs; assay: Western blot of acetylation marks in ESCs after HDAC or p300 inhibition; assay type: cell-based, Mouse; conditions: FIG. 12B, corresponds to FIG. 3D
Procedure: FIG. 12A-12B. […] (A) Scatter plot of the observed overlap of the indicated modification pair versus the overlap expected by chance. Corresponds to the data in FIG. 3A, 3B. […] Corresponds to the data in FIG. 3D.
as §1

[3] = tested on: H3K27me3 on bivalent nucleosomes of Karpas422 lymphoma cells; assay: Single-molecule decoding of H3K27me3 and H3K4me3 on nucleosomes from EZH2 gain-of-function lymphoma cells treated with EZH2 inhibitor; assay type: cell-based, human; conditions: treatment for 3 days, FIG. 2G
Source text: Genomic loci marked by bivalent chromatin in ESCs are frequently deregulated in cancer cells (26). Moreover, the Polycomb and trithorax complexes that catalyze H3K27me3 and H3K4me3 are often mutated in cancer (27, 28). Applicants therefore leveraged the single-molecule platform to investigate these modifications in cancer cells (FIG. 2B, 2C, 10B). First, Applicants examined three cell lines that lack known Polycomb or trithorax mutations: T-cell acute leukemia (DND-41), embryonic kidney (HEK293), and glioblastoma (GSC8). […] Applicants next examined a leukemia line (SKM-1) with a loss-of-function (LOF) mutation of the PRC2 subunit EZH2 (29, 30) (FIG. 2C). Applicants observed a drastic reduction of H3K27me3-marked nucleosomes, consistent with inactivation of this H3K27 methyltransferase. Applicants also examined a lymphoma cell line (Karpas422) with a gain-of-function (GOF) EZH2 mutation that increases its catalytic activity (30). Here Applicants detected H3K27me3 on a very high proportion of nucleosomes (15%). […] Even when controlling for the large fraction of H3K27me3-marked nucleosomes in these cells, the proportion of bivalent nucleosomes is ˜4-fold greater than expected from random overlap. […] This may reflect increased nucleosome turnover and/or preferential demethylation in such regions. […]

CC1=NN(c2ccc(C(=O)O)cc2)C(=O)/C1=C\c1ccc(-c2cc(C)c(C)cc2[N+](=O)[O-])o1 [C646]
change in H3K4me3 or H3K27me3 on nucleosomes [1]: Neither drug altered | change in acetylation marks (H3K9ac, H3K27ac) on nucleosomes [1]: opposite affect | preference of acetylation change for H3K4me3-marked nucleosomes (combination H3K27ac and H3K4me3) [1]: H3K4me3-marked nucleosomes were more likely to retain their initial state | acetylation marks by Western blot [2]: decrease in acetylation

CC[C@H](C)n1cc(C)c2c(C(=O)NCc3c(C)cc(C)[nH]c3=O)cc(-c3ccc(N4CCNCC4)nc3)cc21 [GSK126]
loss of H3K27me3 from bivalent nucleosomes [3]: preferential loss of H3K27me3 from bivalent nucleosomes

CCCC(=O)[O-].[Na+] [sodium butyrate, Sodium butyrate]
change in H3K4me3 or H3K27me3 on nucleosomes [1]: Neither drug altered | change in acetylation marks (H3K9ac, H3K27ac) on nucleosomes [1]: significantly increased | preference of acetylation change for H3K4me3-marked nucleosomes (combination H3K27ac and H3K4me3) [1]: increased acetylation preferentially affected H3K4me3-marked nucleosomes | acetylation marks by Western blot [2]: increase in acetylation marks
